In ChEMBL document CHEMBL4715724, “Novel 5-substituted-2-anilinoquinolines with 3-(morpholino or 4-methylpiperazin-1-yl)propoxy moiety as broad spectrum antiproliferative agents: Synthesis, cell based assays and kinase screening” (Bioorg Med Chem Lett, 2016):

Legend:
HOP-92 = experiment: cells; type: functional; conditions: Homo sapiens, time 48 hrs
Description: Growth inhibition of human HOP-92 cells incubated for 48 hrs by sulforhodamine B assay

NCI-H226 = experiment: cells; type: functional; conditions: Homo sapiens, time 48 hrs
Description: Growth inhibition of human NCI-H226 cells incubated for 48 hrs by sulforhodamine B assay

NCI-H460 = experiment: cells; type: functional; conditions: Homo sapiens, time 48 hrs
Description: Growth inhibition of human NCI-H460 cells incubated for 48 hrs by sulforhodamine B assay

UACC-62 = experiment: cells; type: functional; conditions: Homo sapiens, time 48 hrs
Description: Growth inhibition of human UACC-62 cells incubated for 48 hrs by sulforhodamine B assay

IGROV-1 = experiment: cells; type: functional; conditions: Homo sapiens, time 48 hrs
Description: Growth inhibition of human IGROV-1 cells incubated for 48 hrs by sulforhodamine B assay

OVCAR-3 = experiment: cells; type: functional; conditions: Homo sapiens, time 48 hrs
Description: Growth inhibition of human OVCAR-3 cells incubated for 48 hrs by sulforhodamine B assay

OVCAR-4 = experiment: cells; type: functional; conditions: Homo sapiens, time 48 hrs
Description: Growth inhibition of human OVCAR-4 cells incubated for 48 hrs by sulforhodamine B assay

Hs-578T = experiment: cells; type: functional; conditions: Homo sapiens, time 48 hrs
Description: Growth inhibition of human Hs-578T cells incubated for 48 hrs by sulforhodamine B assay

[1] = test system: Serine/threonine-protein kinase B-raf (Homo sapiens), P15056 [V600E]; experiment: Inhibition of recombinant N-terminal GST-tagged human BRAF V599E mutant (417 to 766 residues) expressed in Sf9 cells assessed as residual activity at 10 uM relative to control
[2] = molecular target: Vascular endothelial growth factor receptor 3 (Homo sapiens) (UniProt P35916); experiment: Inhibition of N-terminal GST-tagged human FLT4 (800 to end residues) expressed in baculovirus infected Sf21 cells assessed as residual activity at 10 uM relative to control
[3] = molecular target: Tyrosine-protein kinase JAK2 (Homo sapiens) (UniProt O60674); experiment: Inhibition of recombinant C-terminal His6-tagged human JAK2 (808 to end residues) expressed in baculovirus infected Sf21 insect cells at 10 uM relative to control
[4] = molecular target: Mitogen-activated protein kinase 8 (Homo sapiens) (UniProt P45983); experiment: Inhibition of N-terminal His-tagged recombinant full length human JNK1alpha1 expressed in Sf21 cells at 10 uM relative to control
[5] = molecular target: Serine/threonine-protein kinase mTOR (Homo sapiens) (UniProt P42345); experiment: Inhibition of human mTOR at 10 uM relative to control
[6] = molecular target: Platelet-derived growth factor receptor alpha (Homo sapiens) (UniProt P16234); experiment: Inhibition of recombinant N-terminal His6-tagged human PDGFRalpha (550 to end residues) expressed in baculovirus infected Sf21 insect cells at 10 uM relative to control
[7] = molecular target: Tyrosine-protein kinase SYK (Homo sapiens) (UniProt P43405); experiment: Inhibition of recombinant full length N-terminal His6-tagged human SYK expressed in baculovirus infected Sf21 insect cells at 10 uM relative to control
[8] = molecular target: PI3-kinase p110-alpha/p85-alpha (Homo sapiens) (UniProt P27986+P42336); experiment: Inhibition of p110 alpha/p85 alpha (unknown origin) at 10 uM relative to control; type: protein-complex assay
[9] = test system: PI3-kinase p110-alpha/p85-alpha (Homo sapiens), P27986+P42336 [E542K]; experiment: Inhibition of p110alpha/p85alpha E542K mutant (unknown origin) at 10 uM relative to control; type: protein-complex assay
[10] = test system: Panel colon (Carcinoma cell lines); experiment: cells; type: functional; conditions: Homo sapiens, time 48 hrs
Description: Growth inhibition of human Panel colon (Carcinoma cell lines) incubated for 48 hrs by sulforhodamine B assay

[11] = test system: Panel CNS (Carcinoma cell lines); experiment: cells; type: functional; conditions: Homo sapiens, time 48 hrs
Description: Growth inhibition of human Panel CNS (Carcinoma cell lines) incubated for 48 hrs by sulforhodamine B assay

[12] = read-out: LC50 (the source's name)

Serine/threonine-protein kinase B-raf (Homo sapiens), P15056 [V600E], sequence (P15056 whole entry V600E, the tested form may be a part): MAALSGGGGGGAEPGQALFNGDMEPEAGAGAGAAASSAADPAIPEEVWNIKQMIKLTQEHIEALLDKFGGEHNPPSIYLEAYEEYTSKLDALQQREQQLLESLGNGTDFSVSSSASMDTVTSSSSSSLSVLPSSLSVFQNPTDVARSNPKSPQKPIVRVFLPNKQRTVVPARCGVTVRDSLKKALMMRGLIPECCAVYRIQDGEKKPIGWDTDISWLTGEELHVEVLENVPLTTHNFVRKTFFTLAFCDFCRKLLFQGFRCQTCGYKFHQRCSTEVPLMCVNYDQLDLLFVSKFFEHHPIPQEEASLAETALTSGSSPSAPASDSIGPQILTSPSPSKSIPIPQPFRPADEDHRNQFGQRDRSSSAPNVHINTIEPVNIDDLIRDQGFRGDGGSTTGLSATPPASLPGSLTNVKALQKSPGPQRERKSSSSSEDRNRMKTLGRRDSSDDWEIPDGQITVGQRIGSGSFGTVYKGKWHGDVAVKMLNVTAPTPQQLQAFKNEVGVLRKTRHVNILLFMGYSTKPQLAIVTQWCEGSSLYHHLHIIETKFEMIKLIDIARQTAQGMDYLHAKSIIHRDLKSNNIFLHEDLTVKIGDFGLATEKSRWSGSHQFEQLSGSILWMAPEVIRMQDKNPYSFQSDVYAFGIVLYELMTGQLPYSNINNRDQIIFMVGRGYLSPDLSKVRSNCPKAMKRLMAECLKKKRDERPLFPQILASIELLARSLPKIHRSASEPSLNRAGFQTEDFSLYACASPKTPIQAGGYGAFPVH
Platelet-derived growth factor receptor alpha (Homo sapiens), sequence (P16234 whole entry): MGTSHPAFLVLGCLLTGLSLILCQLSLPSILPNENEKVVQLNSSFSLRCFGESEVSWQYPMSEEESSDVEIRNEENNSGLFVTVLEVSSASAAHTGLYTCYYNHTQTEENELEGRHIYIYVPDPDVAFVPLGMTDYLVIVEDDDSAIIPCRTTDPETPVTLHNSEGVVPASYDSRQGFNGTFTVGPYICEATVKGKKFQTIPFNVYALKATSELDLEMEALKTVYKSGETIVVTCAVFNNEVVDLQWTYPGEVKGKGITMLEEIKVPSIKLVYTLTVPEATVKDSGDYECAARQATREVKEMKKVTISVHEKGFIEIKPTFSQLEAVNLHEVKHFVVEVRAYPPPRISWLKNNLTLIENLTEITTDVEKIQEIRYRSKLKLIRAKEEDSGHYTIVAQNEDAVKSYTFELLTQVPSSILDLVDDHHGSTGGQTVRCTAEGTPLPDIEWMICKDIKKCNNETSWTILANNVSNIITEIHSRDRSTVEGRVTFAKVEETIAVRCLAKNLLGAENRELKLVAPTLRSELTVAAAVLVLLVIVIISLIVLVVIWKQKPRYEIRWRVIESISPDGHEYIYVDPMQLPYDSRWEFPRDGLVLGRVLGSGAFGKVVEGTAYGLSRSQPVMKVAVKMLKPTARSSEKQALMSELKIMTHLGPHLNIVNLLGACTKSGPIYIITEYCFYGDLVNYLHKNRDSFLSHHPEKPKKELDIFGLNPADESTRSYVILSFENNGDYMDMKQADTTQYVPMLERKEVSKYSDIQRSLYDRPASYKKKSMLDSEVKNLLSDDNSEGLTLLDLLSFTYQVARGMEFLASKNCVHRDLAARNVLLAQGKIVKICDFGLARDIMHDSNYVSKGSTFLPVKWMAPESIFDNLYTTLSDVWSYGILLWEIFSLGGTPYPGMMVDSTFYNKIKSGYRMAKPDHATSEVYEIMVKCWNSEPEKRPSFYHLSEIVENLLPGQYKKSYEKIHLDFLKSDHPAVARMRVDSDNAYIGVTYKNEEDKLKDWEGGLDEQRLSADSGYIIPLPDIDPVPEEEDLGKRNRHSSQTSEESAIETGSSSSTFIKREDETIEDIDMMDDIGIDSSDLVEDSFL
Tyrosine-protein kinase JAK2 (Homo sapiens), sequence (O60674 whole entry): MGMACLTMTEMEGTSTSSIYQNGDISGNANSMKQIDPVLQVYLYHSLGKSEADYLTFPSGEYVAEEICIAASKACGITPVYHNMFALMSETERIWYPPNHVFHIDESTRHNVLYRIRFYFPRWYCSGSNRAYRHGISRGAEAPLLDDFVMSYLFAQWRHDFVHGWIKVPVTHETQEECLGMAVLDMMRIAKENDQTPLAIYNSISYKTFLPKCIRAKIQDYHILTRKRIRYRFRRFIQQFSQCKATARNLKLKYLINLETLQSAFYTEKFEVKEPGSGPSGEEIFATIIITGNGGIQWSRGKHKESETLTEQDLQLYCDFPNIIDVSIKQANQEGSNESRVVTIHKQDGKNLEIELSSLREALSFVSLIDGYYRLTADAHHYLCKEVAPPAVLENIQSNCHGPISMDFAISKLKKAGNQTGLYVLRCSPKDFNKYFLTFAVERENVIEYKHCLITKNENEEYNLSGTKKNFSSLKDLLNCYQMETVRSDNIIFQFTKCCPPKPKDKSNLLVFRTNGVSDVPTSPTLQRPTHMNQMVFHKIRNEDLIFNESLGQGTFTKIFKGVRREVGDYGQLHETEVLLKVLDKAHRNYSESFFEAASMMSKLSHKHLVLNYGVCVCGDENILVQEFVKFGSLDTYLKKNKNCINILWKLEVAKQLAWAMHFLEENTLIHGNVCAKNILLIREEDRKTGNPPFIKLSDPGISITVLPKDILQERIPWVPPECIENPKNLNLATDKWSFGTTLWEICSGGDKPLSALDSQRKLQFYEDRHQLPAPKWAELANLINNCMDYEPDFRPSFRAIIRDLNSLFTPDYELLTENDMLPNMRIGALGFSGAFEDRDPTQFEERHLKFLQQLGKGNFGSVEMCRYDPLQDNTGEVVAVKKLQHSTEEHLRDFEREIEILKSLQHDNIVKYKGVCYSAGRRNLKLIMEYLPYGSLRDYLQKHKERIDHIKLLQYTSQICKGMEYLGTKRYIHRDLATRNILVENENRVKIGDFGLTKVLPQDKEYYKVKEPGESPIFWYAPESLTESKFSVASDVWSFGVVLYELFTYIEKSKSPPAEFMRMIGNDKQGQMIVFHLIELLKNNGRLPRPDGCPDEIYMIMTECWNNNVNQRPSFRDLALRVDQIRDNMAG
Mitogen-activated protein kinase 8 (Homo sapiens), sequence (P45983 whole entry): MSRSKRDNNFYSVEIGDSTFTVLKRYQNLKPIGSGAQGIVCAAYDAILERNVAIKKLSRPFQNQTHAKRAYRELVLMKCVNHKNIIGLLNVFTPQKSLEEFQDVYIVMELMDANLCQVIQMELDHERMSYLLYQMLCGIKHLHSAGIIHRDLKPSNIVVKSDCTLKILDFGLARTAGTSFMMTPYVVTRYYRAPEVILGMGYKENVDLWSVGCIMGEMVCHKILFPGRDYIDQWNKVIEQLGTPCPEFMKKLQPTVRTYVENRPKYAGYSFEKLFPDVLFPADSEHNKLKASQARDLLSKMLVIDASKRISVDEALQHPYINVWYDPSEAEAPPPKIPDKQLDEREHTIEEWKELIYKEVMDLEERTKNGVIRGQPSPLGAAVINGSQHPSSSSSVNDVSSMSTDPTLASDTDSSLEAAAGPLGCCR
Vascular endothelial growth factor receptor 3 (Homo sapiens), sequence (P35916 whole entry): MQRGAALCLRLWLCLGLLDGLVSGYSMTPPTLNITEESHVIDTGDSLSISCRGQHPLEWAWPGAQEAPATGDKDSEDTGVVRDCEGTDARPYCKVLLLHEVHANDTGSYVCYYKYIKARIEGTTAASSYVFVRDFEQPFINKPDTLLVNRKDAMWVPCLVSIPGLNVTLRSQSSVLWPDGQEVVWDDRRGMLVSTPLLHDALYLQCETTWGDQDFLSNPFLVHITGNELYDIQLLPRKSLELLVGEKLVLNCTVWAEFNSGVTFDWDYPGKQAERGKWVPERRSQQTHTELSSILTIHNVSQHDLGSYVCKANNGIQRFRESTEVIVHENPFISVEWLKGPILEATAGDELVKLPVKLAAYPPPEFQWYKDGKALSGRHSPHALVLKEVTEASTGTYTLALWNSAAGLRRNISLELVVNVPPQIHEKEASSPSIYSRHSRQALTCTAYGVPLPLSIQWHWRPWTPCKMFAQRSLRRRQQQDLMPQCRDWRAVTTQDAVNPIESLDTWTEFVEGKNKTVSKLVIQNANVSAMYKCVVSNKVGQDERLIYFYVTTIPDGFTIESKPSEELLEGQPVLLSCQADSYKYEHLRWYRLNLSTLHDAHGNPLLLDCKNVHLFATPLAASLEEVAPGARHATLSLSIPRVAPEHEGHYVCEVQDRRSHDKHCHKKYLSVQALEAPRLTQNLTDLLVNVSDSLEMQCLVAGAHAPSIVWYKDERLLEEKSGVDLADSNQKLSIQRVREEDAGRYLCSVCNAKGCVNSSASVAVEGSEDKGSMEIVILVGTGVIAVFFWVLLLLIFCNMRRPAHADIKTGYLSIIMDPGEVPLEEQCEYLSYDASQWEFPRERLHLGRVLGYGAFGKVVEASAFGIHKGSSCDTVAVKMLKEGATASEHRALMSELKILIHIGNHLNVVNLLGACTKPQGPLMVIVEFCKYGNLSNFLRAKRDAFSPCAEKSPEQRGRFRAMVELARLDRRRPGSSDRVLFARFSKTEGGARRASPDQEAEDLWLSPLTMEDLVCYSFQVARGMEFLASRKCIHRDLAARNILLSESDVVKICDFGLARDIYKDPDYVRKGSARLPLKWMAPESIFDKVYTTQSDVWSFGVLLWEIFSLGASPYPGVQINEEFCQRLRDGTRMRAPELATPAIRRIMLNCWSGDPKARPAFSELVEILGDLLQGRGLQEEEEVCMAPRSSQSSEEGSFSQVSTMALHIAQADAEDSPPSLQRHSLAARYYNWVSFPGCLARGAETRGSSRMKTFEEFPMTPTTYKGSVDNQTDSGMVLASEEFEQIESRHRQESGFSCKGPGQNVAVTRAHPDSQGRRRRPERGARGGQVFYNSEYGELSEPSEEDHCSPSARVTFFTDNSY

Q: With `CN1CCN(CCCOc2cccc3nc(Nc4ccc(Cl)c(C(F)(F)F)c4)ccc23)CC1` as the compound, how does the GI50 (HOP-92) read?
A: Its GI50 is 1020 nM.

Q: And the GI50 (NCI-H226)?
A: Its GI50 is 2070 nM.

Q: And the GI50 (NCI-H460)?
A: Its GI50 is 1720 nM.

Q: And the GI50 (UACC-62)?
A: The GI50 was 1720 nM.

Q: And the GI50 (IGROV-1)?
A: The GI50 was 1850 nM.

Q: And the GI50 (OVCAR-3)?
A: Its GI50 is 1810 nM.

Q: What about the GI50 (OVCAR-4) of the same compound?
A: The GI50 was 2730 nM.

Q: And the GI50 (Hs-578T)?
A: The GI50 was 2000 nM.

Q: What about the Activity [1] of the same compound?
A: Its Activity is less than 60%.

Q: What about the Activity [2] of the same compound?
A: Its Activity is less than 60%.

Q: And the inhibition [3]?
A: The inhibition was less than 60%.

Q: What about the inhibition [4] of the same compound?
A: The inhibition was less than 60%.

Q: What about the inhibition [5] of the same compound?
A: The inhibition was less than 60%.

Q: And the inhibition [6]?
A: Its inhibition is less than 60%.

Q: What about the inhibition [7] of the same compound?
A: The inhibition was less than 60%.

Q: And the inhibition [8]?
A: Its inhibition is less than 60%.

Q: And the inhibition [9]?
A: The inhibition was less than 60%.

Q: And the GI50 [10]?
A: Its GI50 is 1580 nM.

Q: And the TGI [10]?
A: The TGI was 3170 nM.

Q: And the CC50 [10, 12]?
A: Its CC50 is 6270 nM.

Q: What about the GI50 [11] of the same compound?
A: Its GI50 is 1650 nM.

Q: What about the TGI [11] of the same compound?
A: Its TGI is 3670 nM.

Q: And the CC50 [11, 12]?
A: The CC50 was 6980 nM.
